Laboratory results as given in US20220183290A1, “CHEMICALS WHICH ALTER THE PRODUCTION OF METABOLITES IN CULTIVATED PLANTS” (priority 2017, published 2022).

Tests used:
[1] = test system: Cannabis sp. hemp varietal clones (Happy Camper); assay: Example 1: indoor cultivation experiment, elicitor treatments, secondary metabolite content of flowers; assay type: in vivo; conditions: for terpene production (in words): applied alone or in conjunction with other elicitor treatments; for Total terpene production, change: either MeJA and/or SA (pooled) vs control or si only
Excerpt: Applicant performed an indoor cultivation experiment with 30 identical Cannabis sp. hemp varietal clones (Happy Camper, CBDRx LLC, Colorado). Each of the thirty plants was randomly assigned to one of six treatment groups to test the efficacy and effectiveness of each elicitor compound in isolation or in combination. Plants were maintained in an isolated indoor growing environment under eight, 600-watt double-ended electronic high pressure sodium lamps (Gavita International B.V) under a photoperiod of 12 hours of light per 24-hour day and potted in 1-gallon black plastic pots with a 55% coco coir/45% perlite media (Miller Soils LLC, Longmont, Colo., USA), then transplanted into 10-gallon fabric pots (Smart Pot, High Caliper Growing, USA) filled with a mixture of 75% coco coir and 25% cork (DNA-Mills Ltd, London, England), irrigated as needed with tap water and fertilized consistently to maintain good health with a 4-20-39 base nutrient supplemented with 15-0-0 Calcium Nitrate and commercially available magnesium sulfate (Hydro Gardens International, Colorado Springs, Colo.) at a rate of 300-500 ppm (TDS) as needed. A microbial inoculant (Tribus Original, Impello Biosciences, Ft. Collins, Colo.) was applied at a rate of 1 mL/gallon of nutrient solution every watering to improve plant health. Drip emitters and an automated watering system supplied water and nutrients equally to each plant. Temperatures in the growing environment were maintained at 75° F.±15° F. with a relative humidity range of 30-60%. Every 14 days of growth, all plants were supplemented with a fish protein hydrolysate at a rate of 5 ml/gallon of the previously mentioned nutrient solution to improve nutrition (Innate Bloom 4-2-1, Impello Biosciences, Colorado).
Treatment groups included (1) applications of MeJA as a foliar spray at a concentration of 7.5 mM, (2) SA as a foliar spray at a concentration of 0.5 mM, (3) SiA as a root drench at a concentration of 3 mM, (4) MeJA as a foliar spray at a concentration of 7.5 mM and a root drench of SiA at a concentration of 3 mM, and (5) MeJA as a foliar spray at a concentration of 7.5 mM and a root drench of SiA at a concentration of 3 mM and foliar applications of SA at a concentration of 0.5 mM. The control group was not treated with any applications aside from normal fertilization. Foliar applications of MeJA were performed in the morning hours, within 30 minutes of daybreak, with applications covering plant leaves until dripping. Applications of SA for all SA treatment groups were performed in the morning hours, within 30 minutes of daybreak, with applications covering plant leaves until dripping. Applications of SiA were performed by hand additions of SiA mixtures at the desired concentration to the plant roots of treatment plants; control plants were treated with plain water in the same volume at the same time without the addition of SiA.
7.5 mM solutions of MeJA (mixture of isomers) were prepared in 1-liter volumes using 93% purity MeJA stock solution (TCI America, CAS #[…]) added to reverse osmosis water dropwise with a pipettor while stirring. The pH of the final solution was not adjusted. 0.5 mM solutions of SA were prepared from a 0.5M stock solution, which was prepared using Salicylic Acid powder (ThermoFisher Scientific, CAS #69-72-7), dissolved in 200-proof anhydrous EtOH, denatured (VWR Life Sciences) and stored in a sealed glass bottle. Plant-useable solution was prepared by diluting 1000 μL, of the stock SA solution in 999 mL of reverse osmosis water. Foliar applications of MeJA and SA were made with a 1-L volume low-pressure hand-pump sprayer (Mondi Products LTD, Canada). Silicic Acid solutions were prepared as needed using Silicic Acid stock powder (extra pure light DAB, Millipore Sigma, CAS #7699-41-4), dissolved in reverse osmosis water to the desired final concentration.
Plants were maintained under identical conditions in the same growing environment. […]

[2] = test system: plants from clone (Charlotte x Tangie); assay: Example 4: flower yield / plant weight with varying concentrations of MeJA foliar spray; assay type: in vivo, Cannabis sativa
Excerpt: Example 4: Assessment of Flower Yield in plants treated with varying concentrations of MeJA. […] In turn, we designed an experiment to evaluate the efficacy and effectiveness of applying MeJA as a foliar spray to plants in different concentrations.
Fourteen (14) identical plants from clone (Charlotte x Tangie, CBDRx) were cultivated in 1-gallon black plastic pots in a media mixture of 55% coco coir, 45% perlite (Miller Soils LLC, Colorado). Plants were rooted in 1-inch A-OK rockwool cubes (Grodan, B.V.) uniformly prior to transplant into the 1-gallon pots. At the time of transplant, plants were also transitioned from a photoperiod of 18 hours of light per day to a photoperiod of 12 hours of light per day to induce flowering. Each plant was maintained with a standard, commercially available 3-part (4-20-39, CaNO3, MgSO4) nutrient solution at a recommended rate of 350 ppm (Hydro Gardens International, CO), hand watered as needed with 1 L per plant. Plants were randomly assigned to one of four groups, including three treatment groups and one control group: 0 mM MeJA (control), 5 mM MeJA (low), 7.5 mM MeJA (med), and 10 mM MeJA (high). Plants were maintained under identical environmental conditions on a 4′×8′ black plastic table (Botanicare, USA) under 1200 w of light (Gavita Inc, Ne). […]

[3] = day 28, MeJA alone or in conjunction with other elicitors vs non-MeJA treatment, p≤0.05

SMILES | terpene production (in words) [1] | Total cannabinoids concentration, change [1, 3] | total CBD concentration, change [1, 3] | total THC concentration, change [1, 3] | Total terpene production, change ([1]; day 28, p≤0.05) | Total CBDA, change ([1]; day 42, MeJA treatments vs no MeJA treatments, p≤0.0005) | Total THC-A, change ([1]; day 42, MeJA treatments vs no MeJA treatments, significance less than 0.0005) | Total cannabinoids (THC, THCA, CBD, CBDA), change ([1]; day 42, groups with MeJA alone or in combination vs groups without MeJA, p≤0.001) | total cannabinoid concentration, change ([1]; day 42, plants that received MeJA treatments (MeJA or MeJA+SiA or MeJA+SiA+SA) vs control group, p≤0.005) | total cannabinoid contents, change ([1]; day 63, some sort of MeJA treatment (MeJA only, MeJA with SiA, or ALL) vs control group, p≤0.05) | total cannabinoid contents, change ([1]; day 63, some sort of MeJA treatment (MeJA only, MeJA with SiA, or ALL) vs no MeJA (control, SA only, SiA only), p≤0.000001) | CBD content, change ([1]; day 63, vs control plants, p≤0.05 (ALL: p≤0.01)) | cannabinoid production (in words) ([1]; throughout the flowering cycle, applied alone or in conjunction with other treatments) | impact on plant performance ([2]; exogenous foliar applications, 5-10 mM MeJA) | differences in weights between the treatment groups ([2]; foliar spray 0, 5, 7.5, 10 mM MeJA every 14 days from day 7 of the reproductive cycle) | THCA production (in words) ([1]; applied independently without supplemental MeJA applications) | THCA, change ([1]; day 63, SA treatment plants vs control plants, p≤0.05)
CC/C=C\CC1C(=O)CCC1CC(=O)OC (stereo not shown) [MeJA, Methyl Jasmonate] | increased terpene production | +61.96% | +61.49% | +61.30% | +35% | +54.99% | +56.82% | +54.67% | +41.49% | +33.11% | +58.64% | +23.27% | consistently increased cannabinoid production | did not negatively impact plant performance | No significant differences | – | –
O=C(O)c1ccccc1O [SA, Salicylic acid] | increased terpene production | – | – | – | +35% | – | – | – | – | – | – | – | – | – | – | decreased THCA production | −45.67%
